This note sets out measurements from patent US9265189B2, “Method for reducing damage by harmful organisms in corn cultivation” (SUMITOMO CHEMICAL COMPANY, LIMITED, priority 2012, dated 2016).

Holding throughout (format): in vivo
The subject of one assay is Rhopalosiphum padi. In words: Green house cup test, furrow drip treatment, Rhopalosiphum padi on corn (Example 6). The conditions noted are these: insects released 10 days after seeding, counted 7 days after insect releasing, 100×(A−B)/A. The protocol:
A plastic cup (diameter 7 cm) having a volume of 390 ml was filled with a soil, a furrow was formed to a depth of 3 cm from the soil surface, the formed furrow was drip-treated with each of water-diluted liquids of a thiamethoxam water soluble powder (using a 10.0% preparation, trade name: Actara Water Soluble Powder, manufactured by Syngenta Japan K.K.), an imidacloprid water dispersible granule (using a 50.0% preparation, trade name: Admire Water dispersible Granule, manufactured by Bayer CropScience K.K.) and a thiacloprid water dispersible granule (using a 30.0% preparation, trade name: Bariard Water Dispersible Granule, manufactured by Bayer CropScience K.K.) so as to achieve the application amount described in Table 6, and then seeded with corn (variety name: Pioneer 32K61, hybrid variety) at a rate of one grain per cup, and the soil on the side of the furrow was gathered together to close the furrow. Corn was grown in a usual green house.
10 days after seeding of corn, 10 insects of Rhopalosiphum padi were released in each cup. This is called a treatment section.
On the other hand, except that a chemical was not applied, corn was grown in a usual green house in the same manner as in the treatment section, and 10 insects of Rhopalosiphum padi were released. This is called a non-chemical-treatment section.
7 days after insect releasing, the number of Rhopalosiphum padi was investigated, and a preventive value was calculated using the following equation. The results are shown in Table 6. preventive value=100×(A−B)/A
A: number of insects during investigation of non-chemical-treatment section
B: number of insects during investigation of treatment section

Assay [1] relates to Diabrotica virgifera virgifera and Agriotes lineatus. As to the kind of experiment: Field test, lodge rate, imidacloprid in-furrow, herbicides plus cyprosulfamide on soil (Example 8). The following applies: imidacloprid 120 g/ha in-furrow spray 125 L/ha, thiuram-treated seed, 165 days after application; example in present tense. The source says: (§1) A chemical fertilizer (N:P:K=15:15:15) is applied to the soil surface of a cultivated land at 300 kg/ha, and the cultivated land is then plowed. 7 days after fertilization, for suppressing generation of weeds, the soil surface of the whole cultivated land is spray-treated with a mixed liquid containing thiencarbazone-methyl and isoxaflutole, each of which being a herbicide, and cyprosulfamide which is a safener at 150 L/ha so that the application amounts of thiencarbazone-methyl, isoxaflutole and cyprosulfamide are 9.2 g/ha, 23 g/ha and 15 g/ha, respectively. 21 days after fertilization, using a pneumatic seeder (disk furrow opener) equipped with a power sprayer, a cultivated land is ditched at intervals of 75 cm to a depth of 3 cm from the soil surface, and the furrow is seeded with corn (Zea Mays; hybrid variety). […] 165 days after application of the aqueous suspension of imidacloprid, the number of plants of corn lodged due to damage by Diabrotica virgifera virgifera and Agriotes lineatus in the furrows of the treatment section and the non-treatment section, for which the number of plants of corn germinated is investigated, is investigated, a lodge rate is calculated in accordance with the following equation, and then an average lodge rate for the four investigation sections is determined.

Assay [2] has the same test system. As to the kind of experiment: Field test, lodge rate, imidacloprid and cyprosulfamide in-furrow (Example 10). The conditions noted are these: imidacloprid 120 g/ha together with cyprosulfamide 15 g/ha in-furrow spray 125 L/ha, thiuram-treated seed, 165 days after application; example in present tense.
Source text: as §1, with “herbicide,” for “herbicide, and cyprosulfamide which is a safener”, “of thiencarbazone-methyl and” for “of thiencarbazone-methyl,”, “isoxaflutole” for “isoxaflutole and cyprosulfamide”, “9.2” for “9.2 g/ha, 23”, “and 23” for “and 15”, “variety). The furrow is seeded at intervals of 20 cm using, as a seed of corn, one treated with thiuram. A seeding density of corn is 70000 seeds/ha.” for “variety).”

As for `N#C/N=C1\SCCN1Cc1ccc(Cl)nc1` [Thiacloprid], the Preventive value in the assay on Rhopalosiphum padi (application amount 20 g/ha) and in the assay on Rhopalosiphum padi (application amount 200 g/ha) was 100 in each case.

As for `O=[N+]([O-])NC1=NCCN1Cc1ccc(Cl)nc1` [Imidacloprid], the Preventive value in the assay with Rhopalosiphum padi (application amount 20 g/ha) and in the assay on Rhopalosiphum padi (application amount 200 g/ha) was 100 each time. The “Lodge rate compared to non-treatment section” value in assay [1] and in assay [2] was “low lodge rate as compared to the non-treatment section” each time.

For `CN1COCN(Cc2cnc(Cl)s2)/C1=N\[N+](=O)[O-]` [Thiamethoxam], the Preventive value in the assay on Rhopalosiphum padi (application amount 20 g/ha) and in the assay with Rhopalosiphum padi (application amount 200 g/ha) was 100 in each case.
